Columns and labels:
Assay in all cases: HMF sulfoconjugation assay
Assay type in all cases: biochemical
hSULT1B1 = target: T1, hSULT1B1 (Homo sapiens, UniProt O43704)
T1 construct: made in house; host or cells: Salmonella typhimurium TA1538 (cytosolic fraction, not purified)
Description: (§1) Cytosolic fractions containing individual SULT forms were prepared from transgenic S. typhimurium TA1538. Table S1 in the Supplementary Material provides a summary of the thirty SULTs used in the current study together with references describing the cloning of the respective S. typhimurium TA1538 strains. The expressed SULT forms are denoted with the prefixes h, m and r for human, mouse and rat enzymes, respectively. Bacteria were grown in Luria Broth medium containing ampicillin (100 µg/ml) by stirring for 8 h at 200 revolutions/min at 37 °C. The bacterial suspensions were centrifuged at 5,000 g for 10 min. The sediments were washed twice with 25 ml of 10 mM potassium phosphate buffer (pH 7.4)/50 mM potassium chloride (KCP buffer) and centrifuged again. The pellets were taken up in 800 µl KCP buffer and sonicated thrice for 15 s with 30 s pauses in between. The soluble fraction was attained by centrifuging for 1 h at 100,000 g. The supernatants (in the following termed cytosolic preparations) were frozen at −80 °C. The protein concentrations were determined according to a bicinchoninic acid (BCA) assay protocol. The SULT concentrations in the cytosolic preparations were estimated after electrophoretic separation and immunodetection using inclusion bodies of different SULT forms as standards (Teubner et al. [2007]). The preparation of SULT inclusion bodies and the immunodetection of SULTs is described in the Supplementary Material, which also contains a representative immunoblot of different amounts of rSult1a1standard and a cytosolic preparation of S. typhimurium expressing rSult1a1 (Fig. S1).
(§2) The reactions were conducted in mixtures of 100 µl containing 25–200 µg protein, 50 mM potassium phosphate buffer (pH 7.4), 5 mM MgCl2, 50 µM PAPS and different concentrations of HMF at 37 °C. Preliminary experiments ensured that measurements were recorded under ‘linear’ conditions, i.e., doubling of protein concentration or incubation time was doubling the amount of sulfate ester formed. The reactions were stopped after 30 min by adding 300 µl ice-cold 2-propanol, mixed and centrifuged at 15,000 g for 10 min.
(§3) SMF concentrations of the clear supernatants were analyzed by UPLC-MS/MS. The protocol was adapted from the quantification of SMF in plasma samples of HMF-treated mice (Monien et al. [2009]). In short, the supernatants were analyzed using a UPLC system (Waters) connected to a Quattro Premier XE tandem quadrupole mass spectrometer (Waters) using the negative electrospray ionization mode. Samples of 4 µl were injected into a HSS T3 column (1.8 µm, 2.1 × 100 mm; Waters) and eluted with an isocratic flow of 0.35 ml/min 10 mM ammonium acetate/methanol (95:5). The fragmentation reactions of SMF yielding two principal ions, the sulfate ion radical (m/z = 204.9 → 96.0) and the protonated sulfonate ion (m/z = 204.9 → 81.0) were monitored. The tune parameters were as follows: temperature of the electrospray source 120 °C; desolvation temperature 475 °C; desolvation gas nitrogen (800 l/h); cone gas nitrogen (100 l/h); collision gas argon (indicated cell pressure ~5 × 10^−3 mbar). For the fragmentation of SMF, collision energies were 20 and 23 eV for the transitions m/z = 204.9 → 81.0 and m/z = 204.9 → 96.0, respectively. The dwell time was set to 100 ms, and capillary voltage was set to 0.35 kV. The cone and RF1 lens voltages were 32 and 0.2 V, respectively. SMF was quantified using an external calibration line that was linear in the concentration range of 1.0 nM (4 fmol/injection) to 2,500 (10 pmol/injection) SMF (r ^2 ≥ 0.99). Data acquisition and handling were performed with MassLynx 4.1 software (Waters). The limit of detection (LOD) for this technique of 2.5 nM SMF has been reported (Monien et al. [2009]). In the current study, this corresponds to 10 fmol SMF per injection or a reaction rate of 0.5 pmol SMF/mg/min.

hSULT2A1 = target: T2, hSULT2A1 (Homo sapiens, UniProt Q06520)
T2 construct: made in house; host or cells: Salmonella typhimurium TA1538 (cytosolic fraction, not purified)
T2 sequence (Q06520 1-285): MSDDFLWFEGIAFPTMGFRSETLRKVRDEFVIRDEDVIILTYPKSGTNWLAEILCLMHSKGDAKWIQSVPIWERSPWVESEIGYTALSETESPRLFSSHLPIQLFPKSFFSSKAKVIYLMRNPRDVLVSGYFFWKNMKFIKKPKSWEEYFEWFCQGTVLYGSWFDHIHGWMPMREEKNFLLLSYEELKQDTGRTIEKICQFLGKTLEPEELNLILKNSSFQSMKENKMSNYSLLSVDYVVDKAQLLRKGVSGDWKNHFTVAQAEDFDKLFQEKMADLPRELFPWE
Description: as §1, §2, §3

hSULT4A1 = target: T3, hSULT4A1 (Homo sapiens, UniProt Q9BR01)
T3 construct: made in house; host or cells: Salmonella typhimurium TA1538 (cytosolic fraction, not purified)
T3 sequence (Q9BR01 1-284): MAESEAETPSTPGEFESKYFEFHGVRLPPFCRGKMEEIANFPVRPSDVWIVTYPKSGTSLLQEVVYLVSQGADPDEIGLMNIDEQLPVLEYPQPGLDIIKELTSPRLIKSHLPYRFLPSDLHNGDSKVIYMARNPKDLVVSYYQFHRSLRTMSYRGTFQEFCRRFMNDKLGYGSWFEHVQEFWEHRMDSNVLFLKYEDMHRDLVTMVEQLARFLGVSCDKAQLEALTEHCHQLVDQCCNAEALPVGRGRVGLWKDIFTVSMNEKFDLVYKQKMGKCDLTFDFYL
Description: as §1, §2, §3

rSult2b1 = target: T4, rSult2b1 (Rattus norvegicus, UniProt Q29YR5)
T4 construct: made in house; host or cells: Salmonella typhimurium TA1538 (cytosolic fraction, enzyme not purified)
T4 sequence (Q29YR5 1-340): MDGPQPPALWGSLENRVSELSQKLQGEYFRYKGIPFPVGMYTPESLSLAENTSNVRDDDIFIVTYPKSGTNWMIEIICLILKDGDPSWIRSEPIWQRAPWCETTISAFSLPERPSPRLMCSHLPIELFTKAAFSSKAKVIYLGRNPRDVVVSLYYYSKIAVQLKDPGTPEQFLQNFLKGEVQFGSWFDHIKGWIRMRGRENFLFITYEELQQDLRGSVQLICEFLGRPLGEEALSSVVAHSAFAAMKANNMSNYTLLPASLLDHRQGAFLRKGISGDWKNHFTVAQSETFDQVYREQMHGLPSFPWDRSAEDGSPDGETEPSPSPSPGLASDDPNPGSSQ
Description: as §1, §2, §3

T1 sequence (O43704 whole entry): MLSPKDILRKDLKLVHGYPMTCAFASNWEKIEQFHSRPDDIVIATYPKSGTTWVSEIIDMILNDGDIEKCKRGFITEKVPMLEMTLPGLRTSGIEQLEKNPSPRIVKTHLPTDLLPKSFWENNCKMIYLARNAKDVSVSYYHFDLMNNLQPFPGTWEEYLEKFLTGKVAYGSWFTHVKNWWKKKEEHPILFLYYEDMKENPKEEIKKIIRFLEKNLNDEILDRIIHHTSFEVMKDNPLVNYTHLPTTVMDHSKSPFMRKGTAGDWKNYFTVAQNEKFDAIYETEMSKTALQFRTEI

## O=Cc1ccc(CO)o1 [HMF, 5-Hydroxymethylfurfural]
hSULT1B1; 0.1 mM HMF
  Rate of sulfoconjugation: 2.0 ± 0.5 pmol/mg/min
hSULT1B1; 1 mM HMF
  Rate of sulfoconjugation: 22.2 ± 5.2 pmol/mg/min
hSULT1B1; 10 mM HMF
  Rate of sulfoconjugation: 133 ± 28 pmol/mg/min
hSULT1B1; 100 mM HMF
  Rate of sulfoconjugation: 272 ± 49 pmol/mg/min
hSULT1B1; HMF sulfoconjugation, Michaelis-Menten fit
  K M: 13.3 ± 0.3 mM
hSULT2A1; 0.1 mM HMF
  Rate of sulfoconjugation: <0.5 pmol/mg/min
hSULT2A1; 1 mM HMF
  Rate of sulfoconjugation: 2.4 ± 0.6 pmol/mg/min
hSULT2A1; 10 mM HMF
  Rate of sulfoconjugation: 31.1 ± 5.4 pmol/mg/min
hSULT2A1; 100 mM HMF
  Rate of sulfoconjugation: 201 ± 39 pmol/mg/min
hSULT4A1; 0.1 mM HMF
  Rate of sulfoconjugation: <0.5 pmol/mg/min
hSULT4A1; 1 mM HMF
  Rate of sulfoconjugation: <0.5 pmol/mg/min
hSULT4A1; 10 mM HMF
  Rate of sulfoconjugation: <0.5 pmol/mg/min
hSULT4A1; 100 mM HMF
  Rate of sulfoconjugation: <0.5 pmol/mg/min
rSult2b1; 0.1 mM HMF
  Rate of sulfoconjugation: <0.5 pmol/mg/min
rSult2b1; 1 mM HMF
  Rate of sulfoconjugation: <0.5 pmol/mg/min
rSult2b1; 10 mM HMF
  Rate of sulfoconjugation: <0.5 pmol/mg/min
rSult2b1; 100 mM HMF
  Rate of sulfoconjugation: <0.5 pmol/mg/min

Reference: article PMC4710668, “Bioactivation of food genotoxicants 5-hydroxymethylfurfural and furfuryl alcohol by sulfotransferases from human, mouse and rat: a comparative study” (Archives of Toxicology, 2014)
